Assay results published in the supplement of paper PMC10307832.

Experiments:
Test in all cases: relative viability (nuclei count vs DMSO), 5 days (fraction); higher = more cells survive
[1] = compound: CC1=C(C(=O)N2C=CSC2=N1)CCN3CCC(=C(C4=CC=CC=C4)C5=CC=C(C=C5)F)CC3 + C[C@@H](Oc1cc(-c2cnn(C3CCNCC3)c2)cnc1N)c1c(Cl)ccc(F)c1Cl [Crizotinib] (partner 1 µM)
How it was run: (§1)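 Dosing by pin tool came one day after lung cancer cell lines were seeded in 1536-well plates, using either one drug or a fixed anchor-drug dose plus five library-drug doses (not always all listed) in √10 steps. After 5 days, nuclei were counted on 4× images. Relative viability is treated-well nuclei count divided by vehicle-well nuclei count, and values are medians of duplicate plates.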

[2] = compound: CC1=C(C(=O)N2C=CSC2=N1)CCN3CCC(=C(C4=CC=CC=C4)C5=CC=C(C=C5)F)CC3 + C[C@]1(O)C[C@@H](c2nc(-c3ccc4ccc(-c5ccccc5)nc4c3)c3c(N)nccn32)C1 [Linsitinib] (partner 1 µM)
How it was run: as §1

[3] = compound: CC1=C(C(=O)N2C=CSC2=N1)CCN3CCC(=C(C4=CC=CC=C4)C5=CC=C(C=C5)F)CC3 + Cc1cc(Nc2cc(N3CCN(C)CC3)nc(Sc3ccc(NC(=O)C4CC4)cc3)n2)n[nH]1 [Tozasertib] (partner 0.1 µM)
How it was run: as §1

[4] = compound: CC1=C(C(=O)N2C=CSC2=N1)CCN3CCC(=C(C4=CC=CC=C4)C5=CC=C(C=C5)F)CC3 + COc1cccc2cc(-c3nc([C@H]4CC[C@H](C(=O)O)CC4)n4ncnc(N)c34)[nH]c12 [OSI-027] (partner 0.5 µM)
How it was run: as §1

| Cell Line | relative viability ([1]; first compound 0.08 µM) | relative viability ([1]; first compound 0.253 µM) | relative viability ([1]; first compound 0.8 µM) | relative viability ([1]; first compound 2.53 µM) | relative viability ([1]; first compound 8 µM) | relative viability ([2]; first compound 0.08 µM) | relative viability ([2]; first compound 0.253 µM) | relative viability ([2]; first compound 0.8 µM) | relative viability ([2]; first compound 2.53 µM) | relative viability ([2]; first compound 8 µM) | relative viability ([3]; first compound 0.08 µM) | relative viability ([3]; first compound 0.253 µM) | relative viability ([3]; first compound 0.8 µM) | relative viability ([3]; first compound 2.53 µM) | relative viability ([3]; first compound 8 µM) | relative viability ([4]; first compound 0.08 µM) | relative viability ([4]; first compound 0.253 µM) | relative viability ([4]; first compound 0.8 µM) | relative viability ([4]; first compound 2.53 µM) | relative viability ([4]; first compound 8 µM) |
| --- | --- | --- | --- | --- | --- | --- | --- | --- | --- | --- | --- | --- | --- | --- | --- | --- | --- | --- | --- | --- |
| NCI-H3122 | 0.286 | 0.262 | 0.258 | 0.316 | 0.267 | 1.04 | 1.05 | 0.998 | 1.19 | 1.02 | 0.315 | 0.351 | 0.392 | 0.491 | 0.324 | 0.916 | 1.02 | 1.11 | 1.07 | 0.596 |
| NCI-H1563 | 0.775 | 0.842 | 0.793 | 0.817 | 0.87 | 1.12 | 1.26 | 1.2 | 1.1 | 1.14 |  |  |  |  |  | 0.85 | 0.72 | 0.732 | 0.763 | 0.644 |
| NCI-H1666 | 0.909 | 0.939 | 0.839 | 0.937 | 0.866 | 0.86 | 0.734 | 0.768 | 0.886 | 0.621 | 0.596 | 0.591 | 0.655 | 0.642 | 0.493 | 0.872 | 0.913 | 0.731 | 0.8 | 0.606 |
| PC-3 [JPC-3] | 1.02 | 0.984 | 1.15 | 1.1 | 0.919 | 0.884 | 0.914 | 1.01 | 1.04 | 0.893 | 0.924 | 0.821 | 0.91 | 0.988 | 0.66 | 0.783 | 0.662 | 0.831 | 0.772 | 0.633 |
| UMC-11 | 0.636 | 0.597 | 0.619 | 0.48 | 0.839 | 1.06 | 0.972 | 1.04 | 1.33 | 0.824 | 0.208 | 0.225 | 0.194 | 0.212 | 0.202 | 0.591 | 0.469 | 0.504 | 0.48 | 0.351 |
| SW 1573 | 0.74 | 0.919 | 0.819 | 0.714 | 0.726 | 0.843 | 0.804 | 0.795 | 0.835 | 0.721 |  | 0.211 | 0.157 | 0.203 | 0.21 |  | 0.645 | 0.716 | 0.676 | 0.351 |
| SK-LU-1 | 1.03 | 0.849 | 0.801 | 0.979 | 0.698 | 1.17 | 0.93 | 1.15 | 1.38 | 0.814 | 0.307 | 0.286 | 0.288 | 0.283 | 0.295 | 0.396 | 0.341 | 0.38 | 0.318 | 0.294 |
| 201T | 1.02 | 1.03 | 1.01 | 1.05 | 1.08 | 1.05 | 1.01 | 1 | 1.08 | 1.13 | 0.976 | 1.02 | 0.952 | 0.973 | 0.739 | 0.579 | 0.663 | 0.81 | 0.842 | 0.695 |
| EPLC-272H |  | 1.12 | 0.934 | 1.07 | 0.738 |  | 1.17 | 1.2 | 1.09 | 0.984 | 0.225 | 0.25 | 0.269 | 0.203 | 0.515 | 0.26 | 0.282 | 0.316 | 0.262 | 0.235 |
| NCI-H441 |  | 0.866 | 0.773 | 0.872 | 0.549 |  | 0.541 | 0.777 | 0.654 | 0.355 | 0.67 | 0.754 | 0.657 | 0.688 | 0.498 | 0.505 | 0.582 | 0.576 | 0.754 | 0.416 |
| NCI-H1651 | 0.83 | 0.829 | 0.891 | 0.971 | 0.773 | 0.925 | 0.863 | 0.969 | 1.19 | 0.673 | 0.689 | 0.611 | 0.683 | 0.793 | 0.379 | 0.71 | 0.768 | 0.698 | 0.697 | 0.461 |
| HCC-366 |  | 0.539 | 0.587 | 0.448 | 0.616 |  | 0.645 | 0.594 | 0.946 | 0.265 | 0.103 | 0.123 | 0.103 | 0.0901 | 0.0622 | 1.17 | 1.2 | 1.04 | 1.12 | 0.252 |
| Calu-6 | 0.713 | 0.864 | 0.631 | 0.782 | 0.576 | 0.927 | 1.14 | 0.975 | 0.875 | 0.464 |  |  |  |  |  |  |  |  |  |  |
| NCI-H1299 | 0.971 | 0.943 | 0.976 | 0.965 | 0.69 | 0.901 | 0.98 | 1.09 | 0.932 | 0.607 |  |  |  |  |  |  |  |  |  |  |
| NCI-H1650 | 0.892 | 1.14 | 0.957 | 1.01 | 0.872 |  |  |  |  |  | 0.402 | 0.428 | 0.463 | 0.372 | 0.363 | 0.539 | 0.736 | 0.583 | 0.561 | 0.353 |
| NCI-H1792 | 1.01 | 0.671 | 1.02 | 1.11 | 0.549 | 0.446 | 0.353 | 0.606 | 0.379 | 0.575 |  |  |  |  |  | 0.596 | 0.643 | 0.789 | 0.566 | 0.485 |
| NCI-H2170 | 1.2 | 1.17 | 1.36 | 1.11 | 0.927 |  |  |  |  |  | 0.704 | 0.804 | 0.741 | 0.781 | 0.404 | 0.774 | 0.673 | 0.734 | 0.726 | 0.604 |
| ChaGo-K-1 | 1.17 | 1.32 | 1.29 | 0.706 | 1.03 |  |  |  |  |  | 0.202 | 0.244 | 0.215 | 0.232 | 0.21 | 0.595 | 0.636 | 0.533 | 0.584 | 0.489 |
